Test results published in patent publication US8354412B2, “Beta-3 receptor ligands and their use in therapy” (Universita' Degli Studi di Bari, priority 2006, dated 2013).
Where two headings read alike, the source gives them in different places.

Tests used:
[1] = target: T1, cloned human beta-3 adrenergic receptor (Homo sapiens, UniProt P13945); experiment: cAMP accumulation (DELFIA cAMP-Eu assay) in CHO-K1 cells expressing the beta-3 adrenergic receptor; assay type: cell-based; conditions: for Emax: CHO-K1, read-out: Intrinsic Activity (IA %); for EC50: concentration of ligand producing 50% of maximum cAMP accumulation, CHO-K1 human β3, SEM, n ≧ 3; for type of activity on the beta-3 adrenergic receptor (in words): statement in the description
T1 construct: expressed in transfected cells; host or cells: CHO-K1
T1 sequence (P13945 whole entry): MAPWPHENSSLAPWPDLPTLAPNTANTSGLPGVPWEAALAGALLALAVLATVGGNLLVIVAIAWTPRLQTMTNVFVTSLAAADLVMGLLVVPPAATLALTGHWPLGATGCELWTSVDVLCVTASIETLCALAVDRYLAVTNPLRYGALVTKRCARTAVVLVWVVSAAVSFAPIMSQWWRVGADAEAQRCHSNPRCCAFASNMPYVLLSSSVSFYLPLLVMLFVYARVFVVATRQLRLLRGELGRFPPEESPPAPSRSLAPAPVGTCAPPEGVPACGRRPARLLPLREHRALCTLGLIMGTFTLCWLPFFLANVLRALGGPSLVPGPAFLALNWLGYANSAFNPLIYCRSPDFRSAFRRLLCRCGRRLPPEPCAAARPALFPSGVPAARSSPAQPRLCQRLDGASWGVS
Description: The determination of the beta-3 adrenergic activity of the compounds of general formula (I) was performed by measuring the levels of cAMP in cell lines of CHO-K1 that express the cloned human beta-3 adrenergic receptor. The accumulation of cAMP is directly correlated to the beta-3 adrenergic activity of the compound and is a predictive measure of the effectiveness of the ligand. The accumulation of cAMP produced by the compounds 1a-1h was determined using the Dissociation Enhanced Lanthanide Fluorescence Immunoassay (DELFIA®, Gabriel, D.; Vernier, M.; Pfeifer, M. J.; Dasen, B.; Tenaillon, L.; Bouhelal, R. Assay and Drug Development Technologies 2003, 1, 291-303), endowed with greater sensitivity and greater accuracy than [α-^32P] radioisotope methods (Hoffmann, C.; Leitz, M. R.; Obendorf-Maass, S.; Lohse, M. J.; Klotz, K.-N. Naunyn-Schmiedeberg's Arch. Pharmacol. 2004, 369, 151-159) or [^3H] (Nannies, K. M.; Briend-Sutren, M. M.; Emorine, L. J.; Delavier-Klutchko, C.; Marullo, S.; Strosberg, A. D. Eur. J. Biochem. 1991, 196, 357-361) of determining the levels of cAMP in cell lines.
(§1) The cell lines of “Chinese hamster ovary” (CHO) that individually express the three subtypes of the human adrenergic receptor (β1, β2 or β3 were grown at 37° C. in an atmosphere composed of 5% of CO2 and 95% of air in a culture medium of Dulbecco's Modified Eagle Medium with a nutrient mixture of F12 (DMEM/F12) supplemented with 10% of bovine fetal Serum, 2 mM of L-glutamine, 100 units/ml of penicillin G and 100 μg/ml of […].
The DELFIA test (Dissociation Enhanced Lanthanide […] Immuno Assay) used for measuring the levels of cAMP was performed according to the protocol supplied by PerkinElmer Life Science. The optimization of the experimental conditions (quantity of cells, times of incubation) is reported below.
A plate of confluence cells was trypsinized and the cells were resuspended in the aforementioned culture medium, sown at a concentration of 50000 cells/200 μl per well in a 96-well plate and cultivated overnight in a CO2 incubator. The culture medium was then aspirated from every well and substituted with 100 μl of culture substrate without serum, preheated at 37° C. The plate was then put back into a CO2 incubator for 30 mins at 37° C. 50 μl of IBMX (3-isobutyl-1-methylxanthine) 1 mM, an inhibitor of the phosphodiesterase was then added to all the wells. In some wells 50 μl of forskolin (compound used for the validation of the DELFIA) was added at different concentrations (100 nM, 500 nM, 1 μM, 10 μM, 50 μM) and in the other wells 50 μl of the compounds to be tested at the same concentrations as the forskolin; the plate was then again incubated for 30 min at 37° C. The cells, at this point, were lysed and incubated at room temperature for 5 min. The plate was used immediately for measuring the levels of cAMP or stored at 4° C. until the measurement was carried out. The fluorescence was determined using a multilabel time-resolved fluorimetry technique performed on a PerkinElmer 1420 Victor®. The excitation and emission wavelengths were 340 nm and 615 nm respectively.

[2] = target: T2, cloned human β2-adrenergic receptor (Homo sapiens, UniProt P07550); experiment: [3H]-dihydroalprenolol binding on CHO cell membranes, β2-adrenergic receptor
T2 construct: expressed in transfected cells; host or cells: CHO (membranes)
T2 sequence (P07550 whole entry): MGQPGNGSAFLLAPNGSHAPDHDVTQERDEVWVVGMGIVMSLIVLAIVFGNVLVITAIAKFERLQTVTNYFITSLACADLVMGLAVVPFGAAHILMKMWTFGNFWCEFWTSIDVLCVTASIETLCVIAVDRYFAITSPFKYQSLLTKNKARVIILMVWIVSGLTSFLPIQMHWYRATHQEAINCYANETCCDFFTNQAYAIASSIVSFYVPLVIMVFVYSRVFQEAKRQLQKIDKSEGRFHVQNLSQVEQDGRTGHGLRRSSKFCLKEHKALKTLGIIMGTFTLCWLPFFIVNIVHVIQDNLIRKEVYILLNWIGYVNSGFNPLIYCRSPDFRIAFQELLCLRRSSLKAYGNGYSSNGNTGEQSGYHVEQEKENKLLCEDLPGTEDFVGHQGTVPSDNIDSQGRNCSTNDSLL
Description: as §1
(§2) The preconfluence cells were washed with cold PBS, removed from the surface of the plate, collected in cold lysis buffer (10×10^6/ml; 5 mM Tris/HCl, 2 mM EDTA, pH 7.4 at 4° C.) and homogenized with a Brinkmann Polytron (5 for 3×10 secs). The cell membranes obtained were then […] for 10 mins at 4° C. at 1000 g. The supernatant was centrifuged at 10000 g for 30 min. at 4° C. The resultant membrane pellet was resuspended in cold incubation buffer (50 mM Tris/HCl, 10 mM MgCl2, pH 7.4 for the binding experiments on the β1-adrenergic receptors; 50 mM Tris/HCl, pH 7.4 for the binding experiments of on the β2-adrenergic receptors) and its protein content was then determined. The membrane suspension obtained was used immediately or stored at −80° C. until used in the binding experiments.
(§3) The saturation experiments were conducted by incubating the cell membranes (50 μg of protein) in 500 μl of incubation buffer, containing increasing concentrations of [^3H]-dihydroalprenolol (0.1 nM, 0.5 nM, 1 nM, 3 nM, 5 nM, 10 nM). The β1-adrenergic receptors were incubated at 30° C. for 30 min. while the incubation lasted 90 min. in the case of the β2-adrenergic receptor. […] The filters were then washed (3×1 ml) with cold incubation buffer. The residual radioactivity of the filters was measured using a Beckmann LS6500 Multi-purpose scintillator.
(§4) The competitive experiments were conducted by incubation of 50 μg of protein with increasing quantities of the compound under examination (from 10^−9M to 10^−4M) and 4 nM [^3H]-dihydroalprenolol for the β1-adrenergic receptor or 0.4 nM for the β2-adrenergic receptor, in a total volume of 500 μl of incubation buffer.

[3] = target: T3, cloned human β1-adrenergic receptor (Homo sapiens, UniProt P08588); experiment: [3H]-dihydroalprenolol binding on CHO cell membranes, β1-adrenergic receptor
T3 construct: expressed in transfected cells; host or cells: CHO (membranes)
T3 sequence (P08588 whole entry): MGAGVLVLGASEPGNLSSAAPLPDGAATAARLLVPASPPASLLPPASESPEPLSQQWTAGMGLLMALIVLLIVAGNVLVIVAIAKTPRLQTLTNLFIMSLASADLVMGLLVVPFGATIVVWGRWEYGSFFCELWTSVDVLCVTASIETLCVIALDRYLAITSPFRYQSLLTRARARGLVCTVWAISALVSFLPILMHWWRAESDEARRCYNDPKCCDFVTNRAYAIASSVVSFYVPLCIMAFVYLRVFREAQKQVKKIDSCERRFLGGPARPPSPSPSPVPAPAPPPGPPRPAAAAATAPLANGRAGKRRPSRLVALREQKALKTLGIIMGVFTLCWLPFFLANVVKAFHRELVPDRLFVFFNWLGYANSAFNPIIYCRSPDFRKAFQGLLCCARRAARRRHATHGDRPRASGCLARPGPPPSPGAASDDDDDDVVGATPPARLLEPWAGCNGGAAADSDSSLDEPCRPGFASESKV
Description: as §1, §2, §3, §4

[4] = target: T3, cloned human β1-adrenergic receptor; experiment: as above; conditions: compound at 10 μM
[5] = target: T2, cloned human β2-adrenergic receptor; experiment: [3H]-dihydroalprenolol binding on CHO cell membranes, β2-adrenergic receptor; conditions: compound at 10 μM
[6] = maximum cAMP response, isoproterenol 10^−4 M = 100%, absence of agonists = 0%
[7] = human β2, Cheng-Prusoff, 0.4 nM [3H]-dihydroalprenolol, read-out: Binding Ki, β2
[8] = human β1, Cheng-Prusoff, 4 nM [3H]-dihydroalprenolol, read-out: Binding Ki, β1

SMILES	Emax [1, 6] [%]	EC50 [1] [nM]	type of activity on the beta-3 adrenergic receptor (in words) [1]	Ki [2, 7] [nM]	Ki [3, 8] [nM]	Intrinsic Activity (IA %) [1, 6]	% activation at 10 μM, β1 [4] [%]	% activation at 10 μM, β2 [5] [%]	Ki [2] [nM]	Ki [3] [nM]
CC(C)(Oc1ccc(CCNCC(O)c2ccccc2)cc1)C(=O)O (racemic) [Compound 1a, (±)-2-{4-[2-(2-phenyl-2-hydroxyethylamino)ethyl]phenoxy}-2-methylpropionic acid]	68	4.9 ± 0.25	behaves as an agonist of the beta-3 adrenergic receptor independently of the configuration of the chiral atom	> 5000	> 7000	–	–	–	–	–
C[C@H](Oc1ccc(CCNC[C@@H](O)c2ccccc2)cc1)C(=O)O [Compound 1e, (2S)-(+)-2-{4-[2-((2S)-2-phenyl-2-hydroxyethylamino)ethyl]phenoxy}propionic acid]	-64	192 ± 19	inverse agonist activity	> 5000	> 7000	–	–	–	–	–
COc1ccc(S(=O)(=O)N2CCN(C[C@H](O)COc3cccc(N)c3)CC2)cc1 [Compound 2e, (S)-1-(3-aminophenoxy)-2-hydroxy-3-[4-(4-methoxyphenylsulfonyl)piperazin-1-yl]propane]	–	–	–	> 5000	> 7000	–	–	–	–	–
COc1ccc(S(=O)(=O)N2CCN(C[C@H](O)COc3ccc(OCc4ccccc4)cc3)CC2)cc1 [Compound 2c, (S)-1-(4-benzyloxyphenoxy)-2-hydroxy-3-[4-(4-methoxybenzenesulfonyl)piperazin-1-yl]propane]	48	8.3 ± 1.94	–	> 5000	> 7000	–	–	–	–	–
COc1ccc(S(=O)(=O)N2CCN(C[C@H](O)COc3ccc(O)cc3)CC2)cc1 [Compound 2b, (S)-2-hydroxy-1-(4-hydroxyphenoxy)-3-[4-(4-methoxyphenylsulfonyl)piperazin-1-yl]propane]	67	1.97 ± 0.92	–	> 5000	> 7000	–	–	–	–	–
C[C@@H](Oc1ccc(CCNC[C@H](O)c2ccccc2)cc1)C(=O)O [Compound 1h, (2R)-(−)-2-{4-[2-((2R)-2-phenyl-2-hydroxyethylamino)ethyl]phenoxy}propionic acid]	35	107 ± 37	–	> 5000	> 7000	–	–	–	–	–
C[C@H](Oc1ccc(CCNC[C@H](O)c2ccccc2)cc1)C(=O)O [Compound 1f, (2S)-(−)-2-{4-[2-((2R)-2-phenyl-2-hydroxyethylamino)ethyl]phenoxy}propionic acid]	50	2.2 ± 0.7	particularly active compound as agonist	> 5000	> 7000	–	–	–	–	–
C[C@@H](Oc1ccc(CCNC[C@@H](O)c2ccccc2)cc1)C(=O)O [Compound 1g, (2R)-(+)-2-{4-[2-((2S)-2-phenyl-2-hydroxyethylamino)ethyl]phenoxy}propionic acid]	-73	176 ± 20	inverse agonist activity	> 5000	> 7000	–	–	–	–	–
C[C@@H](Oc1ccc(CCN[C@H](C)[C@@H](O)c2ccccc2)cc1)C(=O)O [Compound 1j]	–	211 ± 10	–	> 5000	> 7000	(39) %	20	21	–	–
C[C@H](NCCc1ccc(O[C@H](C)C(=O)O)cc1)[C@@H](O)c1ccccc1 [Compound 1k, (R)-2-[4-[2-((1S,2S)-1-hydroxy-1-phenylpropan-2-yl-amino)ethyl]phenoxy]propionic acid]	53	1.97 ± 0.9	–	–	–	–	–	–	> 5000	> 7000
CC(C)(Oc1ccc(CCNC[C@@H](O)c2ccccc2)cc1)C(=O)O [Compound 1c, (2S)-(+)-2-{4-[2-(2-phenyl-2-hydroxyethylamino)ethyl]phenoxy}-2-methylpropionic acid]	76	3.4 ± 0.8	–	> 5000	> 7000	–	–	–	–	–
CC(C)(Oc1ccc(CCNC[C@H](O)c2ccccc2)cc1)C(=O)O [Compound 1b, (2R)-(−)-2-{4-[2-(2-phenyl-2-hydroxyethylamino)ethyl]phenoxy}-2-methylpropionic acid]	72	3.9 ± 2.1	–	> 5000	> 7000	–	–	–	–	–
COc1ccc(S(=O)(=O)N2CCN(C[C@H](O)COc3cccc([N+](=O)[O-])c3)CC2)cc1 [Compound 2d, (S)-2-hydroxy-3-[4-(4-methoxyphenylsulfonyl)piperazin-1-yl]-1-(3-nitrophenoxy)-propane]	84	4.1 ± 1.93	–	> 5000	> 7000	–	–	–	–	–
COc1ccc(S(=O)(=O)N2CCN(C[C@H](O)COc3cccc4[nH]c5ccccc5c34)CC2)cc1 [Compound 2j, (S)-1-(Carbazol-4-yloxy)-2-hydroxy-3-[4-(4-methoxybenzenesulfonyl)piperazin-1-yl)propane]	38	3.8 ± 1.8	–	177	> 7000	–	–	–	–	–
CC(Oc1ccc(CCNCC(O)c2ccccc2)cc1)C(=O)O (racemic) [Compound 1d, (±)-2-{4-[2-(2-phenyl-2-hydroxyethylamino)ethyl]phenoxy}propionic acid]	65	3.8 ± 0.7	–	> 5000	> 7000	–	–	–	–	–
COc1ccc(S(=O)(=O)N2CCN(C[C@H](O)COc3ccccc3)CC2)cc1 [Compound 2a, (S)-2-hydroxy-3-[4-(4-methoxyphenylsulfonyl)piperazin-1-yl]-1-phenoxy propane]	58	5 ± 1.9	–	> 5000	> 7000	–	–	–	–	–
COc1ccc(S(=O)(=O)N2CCN(C[C@H](O)COc3cccc4ccccc34)CC2)cc1 [Compound 2i, (S)-2-hydroxy-1-(napht-1-yloxy)-3-[4-(4-methoxyphenylsulfonyl)piperazin-1-yl)propane]	43	5.24 ± 1.08	–	> 2000	> 7000	–	–	–	–	–
